We go through six molecules from patent US4731109A, “Herbicidal 2-haloacetanilides” (Monsanto Company, priority 1982, dated 1988).

Test in all cases: Greenhouse pre-emergence GR15/GR85 selectivity test
Common to all, as to assay type: in vivo

For one assay, the system named is Quackgrass. From the text: (§1) A good grade of top soil is placed in aluminum pans and compacted to a depth of three-eighths to one-half inch from the top of the pan. On the top of the soil is placed a number of seeds or vegetative propagules of various plant species. The soil required to level fill the pans after seeding or adding vegetative propagules is weighed into a pan. The soil and a known amount of the active ingredient applied in a solvent or as a wettable powder suspension are thoroughly mixed, and used to cover the prepared pans. […] As an alternative procedure, the overhead irrigation may be omitted. Observations are made about 2-3 weeks after seeding and treatment.
(§2) A further guide to the effectiveness of a chemical as a selective herbicide is the "selectivity factor" ("SF") for a herbicide in given crops and weeds. The selectivity factor is a measure of the relative degree of crop safety and weed injury and is expressed in terms of the GR15 /GR85 ratio, i.e., the GR15 rate for the crop divided by the GR85 rate for the weed, both rates in kg/ha (lb/A). In the tables below, selectivity factors are shown in parenthesis following the GR85 rate for each weed; the symbol "NS" indicates "non-selective". Marginal or undetermined selectivity is indicated by a dash (--).
(§3) These weeds are commonly associated with such major crops as corn and soybeans. […] The test procedure was the same as described for Tables II and III but modified by the application of an initial overhead irrigation equivalent to 1/4" (0.64 cm) rainfall; subsequent watering was accomplished by subirrigation. "NS" means non-selective within the test limits.
(§4) Unless otherwise noted; greenhouse tests in Table VI and in other tables below involved herbicide treatments by soil incorporation and an initial overhead irrigation followed by subirrigation as described above.

In the next assay the test system is Yellow Nutsedge.
From the text: as §1, §2, §3, §4

A further assay relates to corn.
From the text: (§5) A good grade of top soil is placed in aluminum pans and compacted to a depth of three-eighths to one-half inch from the top of the pan. On the top of the soil is placed a number of seeds or vegetative propagules of various plant species. The soil required to level fill the pans after seeding or adding vegetative propagules is weighed into a pan. The soil and a known amount of the active ingredient applied in a solvent or as a wettable powder suspension are thoroughly mixed, and used to cover the prepared pans. After treatment, the pans are given an initial overhead irrigation of eater, equivalent to one-fourth inch (0.64 cm) rainfall, then watered by subirrigation as need to give adequate moisture for germination and growth. As an alternative procedure, the overhead irrigation may be omitted. Observations are made about 2-3 weeks after seeding and treatment.
(§6) In the discussion and tables of data below, reference is made to herbicide application rates symbolized as "GR15 " and "GR85 "; these rates are given in kilograms per hectare (kg/ha) which are convertible into pounds per acre (lbs/A) by dividing the kg/ha rate by 1.12.
as §2
(§7) In Table IV pre-emergence herbicidal activity data are presented comparing the relative efficacy of the invention compounds and said prior art compounds as selective herbicides against the resistant and troublesome perennial weeds quackgrass and yellow nutsedge in soybeans and corn, respectively. These weeds are commonly associated with such major crops as corn and soybeans. The test data in Table IV were obtained under identical procedural conditions and represent two replicate runs (except for the compound of Example 9 which was present in one comparative test). The test procedure was the same as described for Tables II and III but modified by the application of an initial overhead irrigation equivalent to 1/4" (0.64 cm) rainfall; subsequent watering was accomplished by subirrigation. "NS" means non-selective within the test limits.
(§8) Additionally, pre-emergence herbicidal data from other tests have established that compounds according to this invention also selectively suppress quackgrass, yellow nutsedge and/or other weeds in one or more of the crops cotton, peanuts, bush beans and/or rape. For example, in Table VI are presented data showing the herbicidal selectivity of the compounds of Examples 1 and 2 against quackgrass in rape and snap beans. Unless otherwise noted; greenhouse tests in Table VI and in other tables below involved herbicide treatments by soil incorporation and an initial overhead irrigation followed by subirrigation as described above.

The next assay deals with soybeans.
From the text: as §5, §6, §2, §7, §8

The next assay concerns cotton. The note with it: cotton/yellow nutsedge, average of two replicates.
From the text: as §5, §6, §2, §8
In one multi-crop test in the greenhouse, the compounds of Examples 1, 9, and 10 were tested against yellow nutsedge in cotton, soybeans, corn and rice; each compound was non-selective with respect to yellow nutsedge in rice. However, markedly high selectivities for yellow nutsedge in cotton, soybeans and corn were shown for each of the compounds in the test; the respective GR15 and GR85 rates for these compounds are shown in Table XII selectivity factors are shown in parenthesis after each crop.

[1] abbreviates: quackgrass in soybeans, Table V.
Where [2] appears, read: yellow nutsedge in corn, Table V.
Setting [3] is: yellow nutsedge in soybeans, Table V.
The mark [4] stands for this setting: in cotton, average of two replicates.
Setting [5] is: quackgrass in corn, Table IV, Replicate #2.
[6] abbreviates: yellow nutsedge in corn, Table IV, Replicate #1.
Setting [7] is: yellow nutsedge in corn, Table IV, Replicate #2.
The mark [8] stands for this setting: yellow nutsedge in soybeans, Table IV, Replicate #1.
The mark [9] stands for this setting: yellow nutsedge in soybeans, Table IV, Replicate #2.

For the molecule `COCCN(C(=O)CCl)c1c(C)cccc1C(F)(F)F` [C, N-(methoxyethyl)-2'-trifluoromethyl-6'-methyl-2-chloroacetanilide, reference compound], the GR85 in the assay with Quackgrass (Table V) and with Yellow Nutsedge (Table V) was 0.28 Kg/Ha throughout. For the same molecule, the “selectivity factor (GR15/GR85)” value with Quackgrass (quackgrass in corn, Table V) is reported as 5; in the assay on Quackgrass (setting [1]), > 10; in the assay with Yellow Nutsedge (setting [2]), 5; in the assay with Yellow Nutsedge (setting [3]) it was > 10. In the assay on corn (Table V), this molecule gave a GR15 of 1.3 Kg/Ha.
As to `COCC(C)N(C(=O)CCl)c1c(C)cccc1C(F)(F)F` (stereo not shown) [D, N-(methoxyisopropyl)-2'-trifluoromethyl-6'-methyl-2-chloroacetanilide, reference compound], the GR85 is 1.7 Kg/Ha in the assay on Quackgrass (Table V) and 0.45 Kg/Ha in the assay with Yellow Nutsedge (Table V). Moreover, the “selectivity factor (GR15/GR85)” value with Quackgrass (quackgrass in corn, Table V) is on record as 1; in the assay on Quackgrass (setting [1]) it was > 1.5; in the assay on Yellow Nutsedge (setting [2]) it was 4; in the assay on Yellow Nutsedge (setting [3]) it was > 6. In addition, the GR15 is 2.0 Kg/Ha in the assay with corn (Table V) and > 2.8 Kg/Ha with soybeans (Table V).
Regarding `C#CCOCN(C(=O)CCl)c1c(C)cccc1C(F)(F)F` [Example 8, N--(propargyloxymethyl)-2'-trifluoromethyl-6'-methyl-2-chloroacetanilide], the GR85 was found to be 0.5 kg/ha with Quackgrass (both corn and soybeans); 0.95 kg/ha in the assay on Yellow Nutsedge (in corn); 0.95 kg/ha with Yellow Nutsedge (setting [4]); 0.5 kg/ha with Yellow Nutsedge (in soybeans). Moreover, the “S.F. (GR15/GR85)” value in the assay with Quackgrass (in corn) came to 4.5; in the assay with Quackgrass (in soybeans) it was 4.5; in the assay with Yellow Nutsedge (in corn), 2.5; in the assay on Yellow Nutsedge (setting [4]) it was 2; in the assay with Yellow Nutsedge (in soybeans) it was 4.5. Moreover, the GR15 is recorded as > 2.2 kg/ha in the assay on corn (corn/quackgrass); > 2.2 kg/ha in the assay on corn (corn/yellow nutsedge); > 2.2 kg/ha in the assay on soybeans (soybeans/quackgrass); 2.2 kg/ha in the assay on soybeans (soybeans/yellow nutsedge); 2.0 kg/ha with cotton.
Regarding `COCCN(C(=O)CCl)c1ccccc1C(F)(F)F` [A, N-(methoxyethyl)-2'-trifluoromethyl-2-chloroacetanilide, reference compound], the GR85 is 2.5 Kg/Ha in the assay with Quackgrass (Table IV, Replicate #1, extrapolated value); > 2.2 Kg/Ha in the assay on Quackgrass (Table IV, Replicate #2); 1.2 Kg/Ha in the assay with Yellow Nutsedge (Table IV, Replicate #1); 1.0 Kg/Ha in the assay on Yellow Nutsedge (Table IV, Replicate #2). Besides, the “selectivity factor (GR15/GR85)” value is “NS (non-selective)” with Quackgrass (setting [5]); > 2 in the assay with Yellow Nutsedge (setting [6]); 2 in the assay on Yellow Nutsedge (setting [7]); > 2 in the assay with Yellow Nutsedge (setting [8]); > 2 in the assay on Yellow Nutsedge (setting [9]). Besides, the GR15 with corn (Table IV, Replicate #1) is reported as > 2.2 Kg/Ha; in the assay on corn (Table IV, Replicate #2) it was 2.2 Kg/Ha.
Take `CCOCCN(C(=O)CCl)c1c(C)cccc1C(F)(F)F` [E, N-(ethoxyethyl)-2'-trifluoromethyl-6'-methyl-2-chloroacetanilide, reference compound]: the GR85 amounted to 0.28 Kg/Ha in the assay with Quackgrass (Table V) and 0.22 Kg/Ha with Yellow Nutsedge (Table V). Also, the “selectivity factor (GR15/GR85)” value with Quackgrass (quackgrass in corn, Table V) stood at 2.5; in the assay with Quackgrass (setting [1]), 3; in the assay with Yellow Nutsedge (setting [2]), 3; in the assay with Yellow Nutsedge (setting [3]), 4. In the assay with corn (Table V), this molecule yielded a GR15 of 0.67 Kg/Ha.
For the molecule `CCOCCN(C(=O)CCl)c1ccccc1C(F)(F)F` [B, N-(ethoxyethyl)-2'-trifluoromethyl-2-chloroacetanilide, reference compound], the GR85 in the assay on Quackgrass (Table IV, Replicate #1) was 0.56 Kg/Ha; in the assay on Quackgrass (Table IV, Replicate #2), 0.64 Kg/Ha; in the assay on Yellow Nutsedge (Table IV, Replicate #1) it was 0.47 Kg/Ha; with Yellow Nutsedge (Table IV, Replicate #2) it was 0.43 Kg/Ha. Further, the “selectivity factor (GR15/GR85)” value was 2 in the assay with Quackgrass (quackgrass in corn, Table IV, Replicate #1); “NS (non-selective)” with Quackgrass (setting [5]); 3.5 in the assay with Quackgrass (quackgrass in soybeans, Table IV, Replicate #1); 3 with Quackgrass (quackgrass in soybeans, Table IV, Replicate #2); 2.5 in the assay with Yellow Nutsedge (setting [6]); “NS (non-selective)” in the assay with Yellow Nutsedge (setting [7]). Also, the entries for the “selectivity factor (GR15/GR85)” value in the assay on Yellow Nutsedge (setting [8]) and with Yellow Nutsedge (setting [9]) were 4 and 4.5, respectively. In addition, the GR15 in the assay on corn (Table IV, Replicate #1) worked out at 1.2 Kg/Ha; in the assay on corn (Table IV, Replicate #2), 0.37 Kg/Ha.
